# Source: EPA's ToxValDB 9.5
# Tested on: Mus musculus
# Conditions: oral
# [1] = short-term, duration: 21 days, gavage, M, BALB/c, spleen: lymphocyte proliferation (ConA)
# [2] = short-term, duration: 21 days, gavage, M, BALB/c, spleen: spleen CD3+ cells + spleen: spleen CD3+CD4+ cells + spleen: spleen CD3+CD8+ cells + spleen: spleen: relative weight
# [3] = short-term, duration: 28 days, gavage, F, B6C3F1, IgM antibody-producing cells (SRBC)
# [4] = short-term, duration: 28 days, gavage, F, B6C3F1, peritoneal cavity: IL-6 levels (+LPS in vivo) + peritoneal cavity: TNF-alpha levels (+LPS in vitro) + spleen: spleen: relative weight
# [5] = short-term, duration: 28 days, gavage, F, B6C3F1, serum lysozyme activity + spleen: splenic CD4-/CD8+ + spleen: splenic CD4+/CD8-
# [6] = short-term, duration: 28 days, gavage, F, B6C3F1, spleen (B cells): IL-6 levels (+LPS)
# [7] = short-term, duration: 28 days, gavage, F, B6C3F1, thymus: thymic CD4+/CD8+
# [8] = short-term, duration: 28 days, gavage, M, B6C3F1, IgM antibody-producing cells (SRBC)
# [9] = short-term, duration: 28 days, gavage, M, B6C3F1, spleen: Splenic NK cell activity
# [10] = short-term, duration: 28 days, gavage, M, B6C3F1, spleen: splenic CD4-/CD8- + spleen: splenic CD4-/CD8+ + spleen: splenic CD4+/CD8- + spleen: splenic CD4+/CD8+
# [11] = subchronic, duration: 30 days, gavage, M, C57BL/6, spleen: spleen: relative weight
# [12] = subchronic, duration: 60 days, gavage, M, C57BL/6, % of sub G1 population (splenocytes) + spleen: apoptotic cells (splenocytes) + spleen: viability in murine splenocytes + thymus: apoptotic …
# [13] = subchronic, duration: 60 days, gavage, M, C57BL/6, % of sub G1 population (thymocytes) + body weight change + spleen: necrotic cells (splenocytes) + spleen: spleen cellularity + spleen: …
# [14] = subchronic, duration: 60 days, gavage, M, C57BL/6, IgM antibody titer (SRBC) + spleen: IL-4 levels
# [15] = subchronic, duration: 60 days, gavage, M, C57BL/6, blood serum: IL-1 beta (+LPS in vivo) + blood serum: IL-1 beta levels + blood serum: IL-6 levels + peritoneal cavity: IL-1 beta levels (+LPS…
# [16] = subchronic, duration: 60 days, gavage, M, C57BL/6, blood serum: IL-6 levels (+LPS in vivo) + blood serum: TNF-alpha levels (+LPS in vivo) + peritoneal cavity: IL-6 levels (+LPS in vivo) + …
# [17] = subchronic, duration: 60 days, gavage, M, C57BL/6, body weight change + food intake from day 60 to 61 + IgE antibody titer (SRBC) + IgG antibody titer (SRBC) + IgG1 antibody titer (SRBC) + …
# [18] = subchronic, duration: 60 days, gavage, M, C57BL/6, body weight change + peritoneal cavity: IL-6 levels + peritoneal cavity: IL-6 levels (+LPS in vitro) + peritoneal cavity: TNF-alpha levels…
# [19] = subchronic, duration: 60 days, gavage, M, C57BL/6, liver: liver index
# [20] = subchronic, duration: 60 days, gavage, M, C57BL/6, peritoneal cavity: IL-1 beta levels
# [21] = subchronic, duration: 60 days, gavage, M, C57BL/6, serum corticosterone + spleen: lymphocyte proliferation (LPS) + spleen: spleen B220+ Cells + spleen: spleen CD8+ cells + thymus: thymus CD4…
# [22] = subchronic, duration: 60 days, gavage, M, C57BL/6, spleen: lymphocyte proliferation (ConA) + thymus: thymus DN (CD4-/CD8-)
smiles,measurement,setting,value
O=S(=O)(O)C(F)(F)C(F)(F)C(F)(F)C(F)(F)C(F)(F)C(F)(F)C(F)(F)C(F)(F)F [Perfluorooctanesulfonic acid],NOEL,"short-term, duration: 21 days, gavage, F, B6C3F1, body weight + body weight during influenza A infection (day 41, 20 days after infection) + spleen: spleen: relative weight + Survival time (…",0.025 mg/kg-day
same,LOEL,"short-term, duration: 21 days, gavage, F, B6C3F1, body weight during influenza A infection (day 30, 9 days after infection)",0.005 mg/kg-day
same,LOEL,[1],5 mg/kg-day
same,NOEL,[1],2.5 mg/kg-day
same,LOEL,"short-term, duration: 21 days, gavage, M, BALB/c, spleen: spleen CD3+ cells (cells normalized to control) + spleen: spleen CD3+CD4+ cells (cells normalized to control) + spleen: spleen CD3+…",2.5 mg/kg-day
same,NOEL,"short-term, duration: 21 days, gavage, M, BALB/c, spleen: spleen CD3+ cells + spleen: spleen CD3+CD4+ cells (cells normalized to control) + spleen: spleen CD3+CD8+ cells (cells normalized to…",10 mg/kg-day
same,LOEL,[2],10 mg/kg-day
same,NOEL,[2],5 mg/kg-day
same,LOEL,"short-term, duration: 28 days, diet, M, B6C3F1, corticosterone",0.000156%
same,NOEL,"short-term, duration: 28 days, diet, M, B6C3F1, haemagglutination + IgG antibody level (SRBC 1:200) + IgM antibody-secreting cells (SRBC) + IgM antibody level (SRBC 1:200) + IgM antibody …",0.000156%
same,NOEL,"short-term, duration: 28 days, diet, M, C57BL/6, liver: IFN-gamma levels + liver: IFN-gamma levels (+Con A in vivo) + liver: IL-4 levels (+Con A in vivo) + liver: TNF-alpha levels + liver: …",0.0001%
same,NOEL,"short-term, duration: 28 days, gavage, F, B6C3F1, IL-4 levels (+PMA) + spleen (CD4+ T cells): IL-5 levels (+PMA) + spleen (CD4+ T cells): IL-6 levels (+anti-CD3) + spleen (CD4+ T cells): IL-…",0.0331 mg/kg-day
same,LOEL (TAD),[3],0.5 mg/kg-day
same,NOEL (TAD),[3],0.1 mg/kg-day
same,LOEL,"short-term, duration: 28 days, gavage, F, B6C3F1, blood serum: IL-6 levels (+LPS in vivo) + blood serum: TNF-alpha levels (+LPS in vivo)",0.0331 mg/kg-day
same,NOEL,"short-term, duration: 28 days, gavage, F, B6C3F1, eosinophils + lymphocytes + monocytes + neutrophils + platelet count + RBC + spleen: cells expressing CD19-/CD21+ + spleen: cells expressing…",0.166 mg/kg-day
same,NOEL,"short-term, duration: 28 days, gavage, F, B6C3F1, peritoneal cavity: IL-6 levels (+LPS in vitro) + peritoneal cavity: IL-6 levels (+LPS in vivo) + peritoneal cavity: TNF-alpha levels (+LPS …",9.93 mg/kg-day
same,LOEL,[4],9.93 mg/kg-day
same,NOEL,[4],0.0993 mg/kg-day
same,LOEL (TAD),[5],0.1 mg/kg-day
same,NOEL (TAD),[5],0.05 mg/kg-day
same,LOEL,[6],0.0331 mg/kg-day
same,NOEL,[6],0.00331 mg/kg-day
same,LOEL,"short-term, duration: 28 days, gavage, F, B6C3F1, spleen (B cells): IL-6 levels (+anti-CD40)",0.00331 mg/kg-day
same,NOEL,"short-term, duration: 28 days, gavage, F, B6C3F1, spleen: IL-6 secreting cells (# splenocytes)",0.0331 mg/kg-day
same,LOEL,"short-term, duration: 28 days, gavage, F, B6C3F1, spleen: IL-6 secreting cells (# splenocytes) + spleen: IL-6 secreting cells (% splenocytes)",0.0993 mg/kg-day
same,NOEL (TAD),"short-term, duration: 28 days, gavage, F, B6C3F1, spleen: lymphocyte proliferation (ConA) + spleen: lymphocyte proliferation (LPS) + spleen: spleen cellularity + spleen: spleen: relative …",5 mg/kg-day
same,LOEL (TAD),[7],1 mg/kg-day
same,NOEL (TAD),[7],0.5 mg/kg-day
same,LOEL (TAD),[8],0.05 mg/kg-day
same,NOEL (TAD),[8],0.005 mg/kg-day
same,NOEL (TAD),"short-term, duration: 28 days, gavage, M, B6C3F1, serum lysozyme activity + spleen: lymphocyte proliferation (ConA) + spleen: lymphocyte proliferation (LPS) + spleen: spleen cellularity + …",5 mg/kg-day
same,LOEL (TAD),[9],0.5 mg/kg-day
same,NOEL (TAD),[9],0.1 mg/kg-day
same,LOEL (TAD),[10],0.1 mg/kg-day
same,NOEL (TAD),[10],0.05 mg/kg-day
same,LOEL (TAD),[11],300 mg/kg-day
same,NOEL (TAD),[11],150 mg/kg-day
same,LOEL,[12],0.0833 mg/kg-day
same,NOEL,[12],0.0167 mg/kg-day
same,LOEL,[13],0.833 mg/kg-day
same,NOEL,[13],0.0833 mg/kg-day
same,NOEL,"subchronic, duration: 60 days, gavage, M, C57BL/6, DTH response + IgG2a antibody titer (SRBC) + kidney: kidney index + serum corticosterone",0.833 mg/kg-day
same,LOEL,[14],0.0833 mg/kg-day
same,NOEL,[14],0.0167 mg/kg-day
same,LOEL,"subchronic, duration: 60 days, gavage, M, C57BL/6, IgM antibody-secreting cells (SRBC) + Splenic NK cell activity",0.0833 mg/kg-day
same,NOEL,"subchronic, duration: 60 days, gavage, M, C57BL/6, IgM antibody-secreting cells (SRBC) + spleen: spleen DP (CD4+/CD8+) + Splenic NK cell activity",0.00833 mg/kg-day
same,LOEL,[15],0.833 mg/kg-day
same,NOEL,[15],0.417 mg/kg-day
same,LOEL,[16],2.08 mg/kg-day
same,NOEL,[16],0.833 mg/kg-day
same,NOEL,"subchronic, duration: 60 days, gavage, M, C57BL/6, blood serum: TNF-alpha levels",2.08 mg/kg-day
same,LOEL,[17],0.833 mg/kg-day
same,NOEL,[17],0.417 mg/kg-day
same,LOEL,[18],0.417 mg/kg-day
same,NOEL,[18],0.0833 mg/kg-day
same,LOEL,[19],0.417 mg/kg-day
same,NOEL,[19],0.0833 mg/kg-day
same,LOEL,"subchronic, duration: 60 days, gavage, M, C57BL/6, peritoneal cavity macrophages",0.0167 mg/kg-day
same,NOEL,"subchronic, duration: 60 days, gavage, M, C57BL/6, peritoneal cavity macrophages + spleen: IL-1 beta mRNA",0.0083 mg/kg-day
same,LOEL,[20],0.0833 mg/kg-day
same,NOEL,[20],0.0167 mg/kg-day
same,LOEL,[21],0.833 mg/kg-day
same,NOEL,[21],0.417 mg/kg-day
same,LOEL,[22],2.08 mg/kg-day
same,NOEL,[22],0.833 mg/kg-day
same,LOEL,"subchronic, duration: 60 days, gavage, M, C57BL/6, spleen: spleen CD4+ cells + spleen: spleen cellularity + spleen: spleen DN (CD4-/CD8-) + spleen: spleen DP (CD4+/CD8+) + spleen: spleen: …",0.417 mg/kg-day
same,NOEL,"subchronic, duration: 60 days, gavage, M, C57BL/6, spleen: spleen CD4+ cells + spleen: spleen cellularity + spleen: spleen DN (CD4-/CD8-) + spleen: spleen: relative weight + thymus: thymus …",0.0833 mg/kg-day
